Source: publication PMC10525585, “Evaluation of the Antibacterial Effect of Aurone-Derived Triazoles on Staphylococcus aureus” (Antibiotics, 2023)
“And” between values parts separate entries of the source, which are not always exact repeats. Equal values may be shown once. Read-outs that look alike come from different tables or passages of the source.

Key:
[1] = test system: methicillin-sensitive S. aureus ATCC 29213 (MSSA); assay: microbe, parasite or virus in culture; conditions: Table S1; for IC50: read-out: IC50 MSSA
Experimental: (§1) MRSA strain ATCC 43300 and MSSA strain S. aureus ATCC 29213 were grown on Tryptic Soy Agar (TSA) plates. Before use, an isolated colony was transferred from the TSA plate into Tryptic Soy Broth (TSB) and incubated 18–24 h in a humidified incubator at 37 °C. To adjust for a standard concentration of bacteria, the turbidity of the culture was measured at 600 nm, and its optical density (OD600) adjusted to be in the range 0.08–0.12 which equates to a concentration of approximately 1 × 10^8 CFU/mL. This suspension was diluted 1:20 in TSB. […] MRSA strain S. aureus ATCC 43300 and MSSA strain S. aureus ATCC 29213 were used for all testing in this study.
(§2) The assay for anti-Staphylococcal activity of AT compounds was prepared in 96-well transparent, U-bottom plates. A series of 2-fold dilutions of AT concentrations was tested in triplicate, with each well containing 10 µL of prepared bacterium and 90 µL of AT mixture in CAMHB. […] Blank wells with only CAMHB, a negative control well with 10 µL of bacterium solution mixed into 90 µL CAMHB, a vehicle control well with bacteria mixed into 1% DMSO in CAMBH, and a positive cell death control with vancomycin (1 µL of stock 2 mg/mL solution in 89 µL CAMHB with 10 µL of bacteria) were included. The plate was incubated for 18–24 h at 37 °C in a humidified incubator. Before measurement, PrestoBlue^TM dye (Invitrogen, Carlsbad, CA, USA) was added (10 µL per well) and incubated for 1 h with aluminum foil covering the plate. A CLARIOstar® (BMG LABTECH, Cary, NC, USA) multi-mode plate reader was used to measure the fluorescence at wavelengths of 560 nm for excitation and 590 nm for emission. Inhibitory concentration (IC50) values were defined as half inhibitory concentration and were computed using GraphPad Prism version 9.1 software.

[2] = test system: methicillin-resistant S. aureus ATCC 43300 (MRSA); assay: Antibacterial assay (broth microdilution, PrestoBlue); type: cell-based, Staphylococcus aureus; conditions: for MRSA inhibition (100µM) / IC50: Table S1; for IC50: read-out: IC50 MRSA
Experimental: as §1, §2

[3] = test system: HepG2 (ATCC HB-8065) cells; assay: Cytotoxicity assay (PrestoBlue); type: cell-based, Human
HeLa (ATCC CCL-2) cells = assay: Cytotoxicity assay (PrestoBlue)
Experimental: Human HeLa epithelial (ATCC CCL-2) and HepG2 liver epithelial (ATCC HB-8065) cell lines were used to determine toxicity of AT compounds for mammalian cells. The cells were grown in a complete culture medium of RPMI 1640 with 10% heat-inactivated fetal bovine serum (FBS) at 37 °C in 5% CO2 (95% room air) in a humidified incubator. Before use, attached cell monolayers, which had reached at least 90% confluency, were detached by trypsinization with trypsin-EDTA (0.25%) and resuspension in fresh complete culture media. For experiments, the stock concentration of 1 × 10^5 cells/mL (to achieve a final 1 × 10^4 cells/well concentration) was achieved by counting the trypsinized cells and adjusting to their final concentration for assays.
HeLa or HepG2 cells were pre-seeded into a 96-well transparent, flat bottom plate by adding a volume of 100 µL stock cell concentration (1 × 10^5 cells/mL) in complete culture media to each well. The plate was incubated overnight at 37 °C in a 5% CO2 (95% room air) humidified incubator. After the incubation and before mixing in the AT compounds, a 100 µL volume of fresh complete culture media was added to the pre-seeded wells. The 2-fold dilutions of AT compounds in triplicates were prepared on a separate 96-well plate. Once the dilution plate was prepared, dilutions were transferred into the pre-seeded plate to achieve the same concentrations of ATs as for the inhibition assay described above. The final inoculated plate was then returned to the 5% CO2 (95% room air) humidified incubator for an additional 24 h of incubation with the diluted ATs. Controls were blank wells containing only media, wells with cells and DMSO in complete culture media, and wells with cells and complete culture media only. Measurement of toxicity was analogous to the inhibition assay except that 20 µL of PrestoBlue^TM was used and the incubation was 3–6 h before reading with the plate-reader. Cytotoxicity concentration (CC50) was defined as the concentration where half of the cells remained viable and was computed using GraphPad Prism.

Row | Structure (SMILES) | MSSA inhibition (100µM) [1] [%] | MRSA inhibition (100µM) [2] | also measured
1 | O=C(c1ccccc1O)c1n[nH]nc1-c1ccccc1Cl [AT108] | 30.63 | 8.46% | –
2 | O=C(c1ccccc1O)c1n[nH]nc1-c1cccc([N+](=O)[O-])c1 [AT104] | – | 48.19% | –
3 | O=C(c1ccccc1O)c1n[nH]nc1-c1ccc([N+](=O)[O-])cc1 [AT103] | 81.57 | 88.53% | IC50 [2]: 3.98 µM; CC50 [3]: 2.65 µM
4 | Cc1cccc(C(=O)c2n[nH]nc2-c2cccc([N+](=O)[O-])c2)c1O [AT132] | 83.03 | 57.99% | –
5 | Cc1ccc(O)c(C(=O)c2n[nH]nc2-c2cccc([N+](=O)[O-])c2)c1 [AT131] | 21.31 | 0% | –
6 | N#Cc1ccc(-c2n[nH]nc2C(=O)c2ccc(Cl)cc2O)cc1 [AT120] | 71.82 | 99.51% | IC50 [1]: 6.03 µM; IC50 [2]: 4.18 µM; CC50 [3]: 38.1 µM; CC50 (HeLa (ATCC CCL-2) cells): 17.2 µM
7 | N#Cc1ccc(-c2n[nH]nc2C(=O)c2ccccc2O)cc1 [AT100] | 58.77 | 96.47% and > 96% | IC50 [2]: 38.8 µM; CC50 [3]: 70.7 µM; CC50 (HeLa (ATCC CCL-2) cells; read-out: CC50 HeLa, Table S1): 19.1 µM
8 | N#Cc1ccc(-c2n[nH]nc2C(=O)c2cccc(Br)c2O)cc1 [AT124] | 43.36 | 32.16% | IC50 [2]: 13.4 µM; CC50 [3]: 3.85 µM
9 | O=C(c1ccccc1O)c1n[nH]nc1-c1cccs1 [AT135] | 46.76 | 5.42% | decrease of anti-MRSA activity ([2]; compared with AT137 (no bromine on the thiophene ring)): over 15 fold
10 | O=C(c1ccccc1O)c1n[nH]nc1-c1cccc(Cl)c1 [AT107] | 50.24 | 56.47% | –
11 | Cc1cc(O)c(C(=O)c2n[nH]nc2-c2cccc([N+](=O)[O-])c2)cc1C [AT130] | 58.75 | 43.97% | –
12 | N#Cc1ccccc1-c1n[nH]nc1C(=O)c1ccccc1O [AT102] | 0 | 35.77% | –
13 | N#Cc1ccc(-c2n[nH]nc2C(=O)c2cc(F)ccc2O)cc1 [AT126] | 64.72 | 75.06% | –
14 | O=C(c1ccccc1O)c1n[nH]nc1-c1ccc(O)cc1 [AT117] | 0 | 19.39% | –
15 | Cc1ccc(-c2n[nH]nc2C(=O)c2cc(C)c(C)cc2O)cc1 [AT133] | 88.47 | 58.84% | –
16 | CC(=O)Nc1ccc(-c2n[nH]nc2C(=O)c2ccccc2O)cc1 [AT136] | 0 | 0% | –
17 | O=C(c1ccccc1O)c1n[nH]nc1-c1ccsc1 [AT134] | 10.83 | 0% | –
18 | N#Cc1ccc(-c2n[nH]nc2C(=O)c2cccc(Cl)c2O)cc1 [AT119] | 64.36 | 46.21% | –
19 | O=C(c1ccccc1O)c1n[nH]nc1-c1ccc(I)cc1 [AT113] | 85.79 | 43.81% | –
20 | N#Cc1ccc(-c2n[nH]nc2C(=O)c2c(O)cccc2Cl)cc1 [AT122] | 1.01 | 18.51% | –
21 | Cc1ccc(-c2n[nH]nc2C(=O)c2cccc(Cl)c2O)cc1 [AT123] | 99.45 | 23.62% | IC50 [1]: 12.5 µM; IC50 [2]: 31.2 µM; CC50 [3]: 58.7 µM; CC50 (HeLa (ATCC CCL-2) cells; read-out: CC50 HeLa, Table S1): 14.4 µM
